Target: T1, F508del (Homo sapiens, UniProt P13569, DEL508-508)
T1 construct: expressed in transfected cells
Test: Protocol 1: membrane potential optical assay (FLIPR III, voltage sensing dye), identification of potentiator compounds
Format: cell-based
Settings: Table 3, compounds of Table 1
How it was run: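 Gating potentiation is read as a membrane-potential fluorescence change (FLIPR III, voltage-sensing dye) after one forskolin addition under a Cl− gradient, with gluconate replacing chloride, pH 7.4. Cells are F508del-expressing NIH3T3 mouse fibroblasts held 24 h at 27 °C and exposed to compound before dye loading.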

T1 sequence (P13569 with tags, fused parts or gaps DEL508-508): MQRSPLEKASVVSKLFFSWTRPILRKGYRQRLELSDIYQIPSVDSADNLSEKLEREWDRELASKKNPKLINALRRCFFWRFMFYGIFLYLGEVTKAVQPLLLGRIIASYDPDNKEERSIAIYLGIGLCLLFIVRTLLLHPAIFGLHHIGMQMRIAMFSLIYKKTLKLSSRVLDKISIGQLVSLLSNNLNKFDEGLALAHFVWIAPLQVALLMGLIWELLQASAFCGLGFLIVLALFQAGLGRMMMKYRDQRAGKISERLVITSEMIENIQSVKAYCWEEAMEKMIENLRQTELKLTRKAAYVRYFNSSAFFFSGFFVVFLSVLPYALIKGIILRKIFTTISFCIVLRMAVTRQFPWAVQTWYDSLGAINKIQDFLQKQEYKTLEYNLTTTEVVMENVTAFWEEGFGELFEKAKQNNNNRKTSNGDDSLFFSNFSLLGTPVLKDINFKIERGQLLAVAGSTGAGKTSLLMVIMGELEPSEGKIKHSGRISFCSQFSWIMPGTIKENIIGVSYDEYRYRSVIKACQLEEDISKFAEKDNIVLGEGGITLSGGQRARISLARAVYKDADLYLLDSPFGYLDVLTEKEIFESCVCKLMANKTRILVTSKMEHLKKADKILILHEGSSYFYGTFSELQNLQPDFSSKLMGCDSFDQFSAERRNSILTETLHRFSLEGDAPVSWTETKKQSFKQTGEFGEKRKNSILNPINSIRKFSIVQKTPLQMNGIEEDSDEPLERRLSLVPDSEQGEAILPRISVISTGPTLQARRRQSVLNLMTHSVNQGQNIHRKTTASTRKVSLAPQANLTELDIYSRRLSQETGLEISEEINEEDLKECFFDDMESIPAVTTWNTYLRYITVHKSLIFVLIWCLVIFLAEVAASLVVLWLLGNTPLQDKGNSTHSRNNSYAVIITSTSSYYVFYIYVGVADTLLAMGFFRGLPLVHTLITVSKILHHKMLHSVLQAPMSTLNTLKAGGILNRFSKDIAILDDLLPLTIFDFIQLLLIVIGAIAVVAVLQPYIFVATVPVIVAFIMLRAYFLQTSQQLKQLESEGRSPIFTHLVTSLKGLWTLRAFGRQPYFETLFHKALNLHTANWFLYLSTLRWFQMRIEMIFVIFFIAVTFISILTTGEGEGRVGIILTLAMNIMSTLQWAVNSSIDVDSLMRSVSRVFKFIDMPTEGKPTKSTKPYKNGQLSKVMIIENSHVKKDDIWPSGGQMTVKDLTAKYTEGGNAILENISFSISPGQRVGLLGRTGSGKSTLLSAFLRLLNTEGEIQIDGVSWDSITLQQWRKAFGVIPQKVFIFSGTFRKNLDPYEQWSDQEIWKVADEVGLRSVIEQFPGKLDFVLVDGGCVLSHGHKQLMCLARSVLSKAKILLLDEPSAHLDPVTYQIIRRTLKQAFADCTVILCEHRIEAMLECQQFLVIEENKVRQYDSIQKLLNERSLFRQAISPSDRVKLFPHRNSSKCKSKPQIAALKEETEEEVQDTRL

C[C@@H]1CN(c2nc(C3=CCN(C(=O)OC(C)(C)C)CC3)ccc2C(=O)NS(=O)(=O)c2cccc(N)n2)C(C)(C)C1 [Compound 1624, tert-butyl 4-[5-[(6-amino-2-pyridyl)sulfonylcarbamoyl]-6-[(4S)-2,2,4-trimethylpyrrolidin-1-yl]-2-pyridyl]-3,6-dihydro-2H-pyridine-1-carboxylate]
EC30: +++ (“+++” means <3 uM)

CC(C)COc1cc(F)cc(-c2ccc(C(=O)NS(=O)(=O)c3cccc(N)n3)c(OCCc3ccccn3)n2)c1 [Compound 1625, N-[(6-amino-2-pyridyl)sulfonyl]-6-(3-fluoro-5-isobutoxy-phenyl)-2-[2-(2-pyridyl)ethoxy]pyridine-3-carboxamide]
EC30: ++ (“++” means between 3 uM and 10 uM)

CCO/C=C/c1cc(C(=O)NS(=O)(=O)c2cccc(N)n2)c(N2C[C@@H](C)CC2(C)C)nc1C(C)(C)C [Compound 1626, N-[(6-amino-2-pyridyl)sulfonyl]-6-tert-butyl-5-[(E)-2-ethoxyvinyl]-2-[(4S)-2,2,4-trimethylpyrrolidin-1-yl]pyridine-3-carboxamide]
EC30: +++ (“+++” means <3 uM)

C[C@@H]1CN(c2nc(C3CC3)ccc2C(=O)NS(=O)(=O)c2cccc(N)n2)C(C)(C)C1 [Compound 1627, N-[(6-amino-2-pyridyl)sulfonyl]-6-cyclopropyl-2-[(4S)-2,2,4-trimethylpyrrolidin-1-yl]pyridine-3-carboxamide]
EC30: +++ (“+++” means <3 uM)

CC1CN(c2nc(C(C)(C)C)c(Br)cc2C(=O)NS(=O)(=O)c2cccc(N)n2)C(C)(C)C1 (stereo not drawn) [Compound 1628, N-[(6-amino-2-pyridyl)sulfonyl]-5-bromo-6-tert-butyl-2-(2,2,4-trimethylpyrrolidin-1-yl)pyridine-3-carboxamide]
EC30: +++ (“+++” means <3 uM)

CC(C)COc1cc(F)cc(-c2ccc(C(=O)NS(=O)(=O)c3cccc(N)n3)c(OC3CCCC3(C)C)n2)c1 (stereo not drawn) [Compound 1629, N-[(6-amino-2-pyridyl)sulfonyl]-2-(2,2-dimethylcyclopentoxy)-6-(3-fluoro-5-isobutoxy-phenyl)pyridine-3-carboxamide]
EC30: +++ (“+++” means <3 uM)

Cc1cc(C)c(Oc2nc(C3=CCC(C(C)C)CC3)ccc2C(=O)NS(=O)(=O)c2cccc(N)n2)c(C)c1 (stereo not drawn) [Compound 1630, N-[(6-amino-2-pyridyl)sulfonyl]-6-(4-isopropylcyclohexen-1-yl)-2-(2,4,6-trimethylphenoxy)pyridine-3-carboxamide]
EC30: +++ (“+++” means <3 uM)

CC(=O)C1CCC(c2ccc(C(=O)NS(=O)(=O)c3cccc(N)n3)c(Oc3c(C)cc(C)cc3C)n2)CC1 (stereo not drawn) [Compound 1631, 6-(4-acetylcyclohexyl)-N-[(6-amino-2-pyridyl)sulfonyl]-2-(2,4,6-trimethylphenoxy)pyridine-3-carboxamide]
EC30: ++ (“++” means between 3 uM and 10 uM)

C[C@@H]1CN(c2nc(C3CCCOC3)ccc2C(=O)NS(=O)(=O)c2cccc(N)n2)C(C)(C)C1 (stereo partly drawn) [Compound 1632, N-[(6-amino-2-pyridyl)sulfonyl]-6-tetrahydropyran-3-yl-2-[(4S)-2,2,4-trimethylpyrrolidin-1-yl]pyridine-3-carboxamide]
EC30: ++ (“++” means between 3 uM and 10 uM)

C[C@@H]1CN(c2nc(C(C)(C)C)c(/C=C/C3CCCC3)cc2C(=O)NS(=O)(=O)c2cccc(N)n2)C(C)(C)C1 [Compound 1633, N-[(6-amino-2-pyridyl)sulfonyl]-6-tert-butyl-5-[(E)-2-cyclopentylvinyl]-2-[(4S)-2,2,4-trimethylpyrrolidin-1-yl]pyridine-3-carboxamide]
EC30: +++ (“+++” means <3 uM)

CC(=O)N1CCC(c2ccc(C(=O)NS(=O)(=O)c3cccc(N)n3)c(N3C[C@@H](C)CC3(C)C)n2)CC1 [Compound 1634, 6-(1-acetyl-4-piperidyl)-N-[(6-amino-2-pyridyl)sulfonyl]-2-[(4S)-2,2,4-trimethylpyrrolidin-1-yl]pyridine-3-carboxamide]
EC30: ++ (“++” means between 3 uM and 10 uM)

CC1(C)CN(c2nc(C(F)(F)F)ccc2C(=O)NS(=O)(=O)c2cccc(N)n2)C(C)(C)C1 [Compound 1635, N-[(6-amino-2-pyridyl)sulfonyl]-2-(2,2,4,4-tetramethylpyrrolidin-1-yl)-6-(trifluoromethyl)pyridine-3-carboxamide]
EC30: +++ (“+++” means <3 uM)

C[C@@H]1CN(c2nc(-c3cc(O)cc(F)c3)ccc2C(=O)NS(=O)(=O)c2cccc(N)n2)C(C)(C)C1 [Compound 1636, N-[(6-amino-2-pyridyl)sulfonyl]-6-(3-fluoro-5-hydroxy-phenyl)-2-[(4S)-2,2,4-trimethylpyrrolidin-1-yl]pyridine-3-carboxamide]
EC30: ++ (“++” means between 3 uM and 10 uM)

Cc1cc(OC(C)C)nc(-c2ccc(C(=O)NS(=O)(=O)c3cccc(N)n3)c(N3C[C@@H](C)CC3(C)C)n2)c1 [Compound 1637, N-[(6-amino-2-pyridyl)sulfonyl]-6-(6-isopropoxy-4-methyl-2-pyridyl)-2-[(4S)-2,2,4-trimethylpyrrolidin-1-yl]pyridine-3-carboxamide]
EC30: +++ (“+++” means <3 uM)

CC1(C)CN(c2ncc(C(F)(F)F)cc2C(=O)NS(=O)(=O)c2cccc(N)n2)C(C)(C)C1 [Compound 1638, N-[(6-amino-2-pyridyl)sulfonyl]-2-(2,2,4,4-tetramethylpyrrolidin-1-yl)-5-(trifluoromethyl)pyridine-3-carboxamide]
EC30: +++ (“+++” means <3 uM)

CCC(Oc1nc(-c2cc(F)cc(OCC(C)C)c2)ccc1C(=O)NS(=O)(=O)c1cccc(N)n1)C1CC1(C)C (stereo not drawn) [Compound 1639, N-[(6-amino-2-pyridyl)sulfonyl]-2-[1-(2,2-dimethylcyclopropyl)propoxy]-6-(3-fluoro-5-isobutoxy-phenyl)pyridine-3-carboxamide]
EC30: +++ (“+++” means <3 uM)

CC(C)COc1cc(F)cc(-c2ccc(C(=O)NS(=O)(=O)C3CCOC3)c(N3C[C@@H](C)CC3(C)C)n2)c1 (stereo partly drawn) [Compound 1640, 6-(3-fluoro-5-isobutoxy-phenyl)-N-tetrahydrofuran-3-ylsulfonyl-2-[(4S)-2,2,4-trimethylpyrrolidin-1-yl]pyridine-3-carboxamide]
EC30: +++ (“+++” means <3 uM)

CC(C)COc1cc(F)cc(-c2nc(N3C[C@@H](C)CC3(C)C)c(C(=O)NS(=O)(=O)c3cccc(N)n3)cc2Cl)c1 [Compound 1641, N-[(6-amino-2-pyridyl)sulfonyl]-5-chloro-6-(3-fluoro-5-isobutoxy-phenyl)-2-[(4S)-2,2,4-trimethylpyrrolidin-1-yl]pyridine-3-carboxamide]
EC30: +++ (“+++” means <3 uM)

CCOc1cccc2c1CN(Cc1c(C)cc(C)cc1C)C2(C)C(=O)NS(=O)(=O)c1ncccc1O (stereo not drawn) [Compound 1642, 4-ethoxy-N-[(3-hydroxy-2-pyridyl)sulfonyl]-1-methyl-2-[(2,4,6-trimethylphenyl)methyl]isoindoline-1-carboxamide]
EC30: +++ (“+++” means <3 uM)

Cc1cc(C)c(Oc2nc(C3=CCNCC3)ccc2C(=O)NS(=O)(=O)c2cccc(N)n2)c(C)c1 [Compound 1643, N-[(6-amino-2-pyridyl)sulfonyl]-6-(1,2,3,6-tetrahydropyridin-4-yl)-2-(2,4,6-trimethylphenoxy)pyridine-3-carboxamide]
EC30: ++ (“++” means between 3 uM and 10 uM)

CC(C)COc1cc(F)cc(-c2ccc(C(=O)NS(=O)(=O)c3cccc(N)n3)c(OC3(C)CCC3)n2)c1 [Compound 1644, N-[(6-amino-2-pyridyl)sulfonyl]-6-(3-fluoro-5-isobutoxy-phenyl)-2-(1-methylcyclobutoxy)pyridine-3-carboxamide]
EC30: +++ (“+++” means <3 uM)

Cc1ccc(OCC(C)(C)C)nc1-c1ccc(C(=O)NS(=O)(=O)c2cccc(N)n2)c(N2CC(C)CC2(C)C)n1 (stereo not drawn) [Compound 1645, N-[(6-amino-2-pyridyl)sulfonyl]-6-[6-(2,2-dimethylpropoxy)-3-methyl-2-pyridyl]-2-(2,2,4-trimethylpyrrolidin-1-yl)pyridine-3-carboxamide]
EC30: +++ (“+++” means <3 uM)

Cc1cc(OCC(C)C)cc(-c2ccc(C(=O)NS(=O)(=O)c3cccc(N)n3)c(N3C[C@@H](C)CC3(C)C)n2)c1 [Compound 1646, N-[(6-amino-2-pyridyl)sulfonyl]-6-(3-isobutoxy-5-methyl-phenyl)-2-[(4 S)-2,2,4-trimethylpyrrolidin-1-yl]pyridine-3-carboxamide]
EC30: +++ (“+++” means <3 uM)

CC1CN(c2nc(C(C)(C)C)c(C3=CC(C)(C)OC(C)(C)C3)cc2C(=O)NS(=O)(=O)c2cccc(N)n2)C(C)(C)C1 (stereo not drawn) [Compound 1647, N-[(6-amino-2-pyridyl)sulfonyl]-6-tert-butyl-5-(2,2,6,6-tetramethyl-3H-pyran-4-yl)-2-(2,2,4-trimethylpyrrolidin-1-yl)pyridine-3-carboxamide]
EC30: +++ (“+++” means <3 uM)

CC(C)COc1cc(F)cc(-c2ccc(C(=O)NS(=O)(=O)N3CCC(O)C3)c(N3C[C@@H](C)CC3(C)C)n2)c1 (stereo partly drawn) [Compound 1648, 6-(3-fluoro-5-isobutoxy-phenyl)-N-(3-hydroxypyrrolidin-1-yl)sulfonyl-2-[(4S)-2,2,4-trimethylpyrrolidin-1-yl]pyridine-3-carboxamide]
EC30: +++ (“+++” means <3 uM)

CC(=O)N1CC=C(c2ccc(C(=O)NS(=O)(=O)c3cccc(N)n3)c(Oc3c(C)cc(C)cc3C)n2)CC1 [Compound 1649, 6-(1-acetyl-3,6-dihydro-2H-pyridin-4-yl)-N-[(6-amino-2-pyridyl)sulfonyl]-2-(2,4,6-trimethylphenoxy)pyridine-3-carboxamide]
EC30: ++ (“++” means between 3 uM and 10 uM)

Cc1cc(C)c(Oc2nc(C3CC4CCC3(C)C4(C)C)ccc2C(=O)NS(=O)(=O)c2cccc(N)n2)c(C)c1 (stereo not drawn) [Compound 1650, N-[(6-amino-2-pyridyl)sulfonyl]-6-(1,7,7-trimethylnorbornan-2-yl)-2-(2,4,6-trimethylphenoxy)pyridine-3-carboxamide]
EC30: +++ (“+++” means <3 uM)

Reference: patent US10758534B2 (Vertex Pharmaceuticals Incorporated, priority 2014, dated 2020)
